Measured values: the supplement of paper PMC5908809

Legend:
YT (IL-2 2.5 ng/mL) [1] = assay: percent inhibition of viability; higher = more inhibition; settings: 72 h
NK-YS (IL-2 2.5 ng/mL) [2] = assay: as above; settings: 72 h
KHYG-1 (IL-2 2.5 ng/mL) [3] = assay: as above; settings: 72 h
KAI3 (IL-2 2.5 ng/mL) [4] = assay: as above; settings: 72 h
[5] = test system: normal primary NK cells, pool 3 (3 donors) (IL-2 2.5 ng/mL); assay: as above; settings: 72 h
NK-92 (IL-2 2.5 ng/mL) [6] = assay: as above; settings: 72 h
SNK-6 (IL-2 2.5 ng/mL) [7] = assay: as above; settings: 72 h
DERL-7 (IL-2 2.5 ng/mL) [8] = assay: as above; settings: 72 h
[9] = test system: normal primary NK cells, pool 1 (3 donors) (IL-2 2.5 ng/mL); assay: as above; settings: 72 h
NKL (IL-2 2.5 ng/mL) [10] = assay: as above; settings: 72 h
[11] = test system: normal primary NK cells, pool 1 (3 donors), resting (IL-2 0 ng/mL); assay: as above; settings: 72 h
IMC-1 (IL-2 20 ng/mL) [12] = assay: as above; settings: 72 h
[13] = test system: normal primary NK cells, pool 2 (3 donors) (IL-2 2.5 ng/mL); assay: as above; settings: 72 h
[14] = test system: normal NK cells expanded with K562-aAPC; assay: as above; settings: 72 h, IL-2 2.5 ng/mL
Description: (§1)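 Drug sensitivity and resistance testing on K562-aAPC-expanded normal NK cells: 5 concentrations (10-fold steps over a 10,000-fold range), 72 h at 37 °C, viability by CellTiter-Glo normalised to DMSO and benzethonium chloride controls; DSS from the fitted curve.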

YT (IL-2 2.5 ng/mL) [15] = assay: drug sensitivity score (DSS) (DSS units); higher = more sensitive; extreme values may be limits of the assay; settings: 72 h
NK-YS (IL-2 2.5 ng/mL) [16] = assay: as above; settings: 72 h
KHYG-1 (IL-2 2.5 ng/mL) [17] = assay: as above; settings: 72 h
KAI3 (IL-2 2.5 ng/mL) [18] = assay: as above; settings: 72 h
[19] = test system: normal primary NK cells, pool 3 (3 donors) (IL-2 2.5 ng/mL); assay: as above; settings: 72 h
NK-92 (IL-2 2.5 ng/mL) [20] = assay: as above; settings: 72 h
SNK-6 (IL-2 2.5 ng/mL) [21] = assay: as above; settings: 72 h
DERL-7 (IL-2 2.5 ng/mL) [22] = assay: as above; settings: 72 h
[23] = test system: normal primary NK cells, pool 1 (3 donors) (IL-2 2.5 ng/mL); assay: as above; settings: 72 h
NKL (IL-2 2.5 ng/mL) [24] = assay: as above; settings: 72 h
[25] = test system: normal primary NK cells, pool 1 (3 donors), resting (IL-2 0 ng/mL); assay: as above; settings: 72 h
IMC-1 (IL-2 20 ng/mL) [26] = assay: as above; settings: 72 h
[27] = test system: normal primary NK cells, pool 2 (3 donors) (IL-2 2.5 ng/mL); assay: as above; settings: 72 h
[28] = test system: normal NK cells expanded with K562-aAPC; assay: as above; settings: 72 h; IL-2 2.5 ng/mL
Description: as §1

CC(C)(C)Cn1c(N)nc2ccc(-c3[nH]c(C(C)(C)C)nc3-c3ccc(F)cc3)nc21 [Ralimetinib] (max concentration tested 10000 nM)
percent inhibition of viability [%]
Settings	1 nM	10 nM	100 nM	1000 nM	10000 nM
DERL-7 (IL-2 2.5 ng/mL) [8]	-0.84	3.26	3.67	8.89	48.2
IMC-1 (IL-2 20 ng/mL) [12]	-2.69	-3.53	-8.24	-9.02	-12.2
KAI3 (IL-2 2.5 ng/mL) [4]	5.37	12.8	12.9	10.1	11
KHYG-1 (IL-2 2.5 ng/mL) [3]	-1.88	-3.23	-1.97	1.06	46.9
NK-92 (IL-2 2.5 ng/mL) [6]	-0.07	2.05	1.85	13.3	86.5
NK-YS (IL-2 2.5 ng/mL) [2]	-3.85	0.83	1.68	3.41	13.1
NKL (IL-2 2.5 ng/mL) [10]	0.97	4.97	7.92	17.1	70
SNK-6 (IL-2 2.5 ng/mL) [7]	-2.2	-16	-17.2	-21.4	9.93
YT (IL-2 2.5 ng/mL) [1]	1.29	1.91	4.09	6.38	55.6
[5]	-7.2	-12.3	-15.7	-6.16	11.3
[9]	-10.9	-14.6	6.91	-4.19	51.1
[11]	-14.8	-29.1	-0.22	-17.7	77
[13]	-10.8	-12.4	-9.11	-7.41	31.4
[14]	-3.87	-2.62	-1.53	-3.78	1.72

Settings	drug sensitivity score
DERL-7 (IL-2 2.5 ng/mL) [22]	4
IMC-1 (IL-2 20 ng/mL) [26]	0
KAI3 (IL-2 2.5 ng/mL) [18]	0
KHYG-1 (IL-2 2.5 ng/mL) [17]	2.57
NK-92 (IL-2 2.5 ng/mL) [20]	7.03
NK-YS (IL-2 2.5 ng/mL) [16]	0.28
NKL (IL-2 2.5 ng/mL) [24]	6.44
SNK-6 (IL-2 2.5 ng/mL) [21]	0
YT (IL-2 2.5 ng/mL) [15]	4.06
[19]	0
[23]	2.38
[25]	3.35
[27]	1.04
[28]	0

NC(=O)Nc1sc(-c2ccc(F)cc2)cc1C(N)=O [TPCA-1] (max concentration tested 25000 nM)
percent inhibition of viability [%]
Settings	2.5 nM	25 nM	250 nM	2500 nM	25000 nM
DERL-7 (IL-2 2.5 ng/mL) [8]	0.71	4.69	36.8	94	100
IMC-1 (IL-2 20 ng/mL) [12]	-2.64	-8.76	-6.99	3.86	99.3
KAI3 (IL-2 2.5 ng/mL) [4]	-6.8	-3.3	53.5	89.1	91.4
KHYG-1 (IL-2 2.5 ng/mL) [3]	-2.05	-6.88	25.8	101	97.8
NK-92 (IL-2 2.5 ng/mL) [6]	-11.2	-10.8	8.78	80.4	91.7
NK-YS (IL-2 2.5 ng/mL) [2]	-6.85	-4.02	17	58	94.8
NKL (IL-2 2.5 ng/mL) [10]	-2.04	-2.79	45.8	72.9	87.4
SNK-6 (IL-2 2.5 ng/mL) [7]	-12.6	-19.3	33.2	75.8	93.2
YT (IL-2 2.5 ng/mL) [1]	-3.91	-4.44	13.1	79.6	97.9
[5]	-6.13	-4.52	15.6	67.3	91.3
[9]	-12.8	-10.6	13.2	73.4	94.3
[11]	-1.07	1.15	3.48	43.5	82.3
[13]	-8.08	-4.41	24.2	69.5	87.1
[14]	-0.68	-4.88	18.2	88.4	98.1

Settings	drug sensitivity score
DERL-7 (IL-2 2.5 ng/mL) [22]	21.5
IMC-1 (IL-2 20 ng/mL) [26]	6.04
KAI3 (IL-2 2.5 ng/mL) [18]	23
KHYG-1 (IL-2 2.5 ng/mL) [17]	21.9
NK-92 (IL-2 2.5 ng/mL) [20]	15.9
NK-YS (IL-2 2.5 ng/mL) [16]	13.2
NKL (IL-2 2.5 ng/mL) [24]	20
SNK-6 (IL-2 2.5 ng/mL) [21]	18.2
YT (IL-2 2.5 ng/mL) [15]	16.3
[19]	14.5
[23]	15.2
[25]	9.72
[27]	15.8
[28]	18.4
